Data: patent US20210214375A1 (LUNDBECK LA JOLLA RESEARCH CENTER, INC., priority 2017, published 2021)
Where two headings read alike, the source gives them in different places.

Molecular target: T1, MAGL (Homo sapiens, UniProt Q99685)
T1 construct: Proteomes (human prefrontal cortex or cell membrane fractions); from tissue
T1 sequence (Q99685 1-303): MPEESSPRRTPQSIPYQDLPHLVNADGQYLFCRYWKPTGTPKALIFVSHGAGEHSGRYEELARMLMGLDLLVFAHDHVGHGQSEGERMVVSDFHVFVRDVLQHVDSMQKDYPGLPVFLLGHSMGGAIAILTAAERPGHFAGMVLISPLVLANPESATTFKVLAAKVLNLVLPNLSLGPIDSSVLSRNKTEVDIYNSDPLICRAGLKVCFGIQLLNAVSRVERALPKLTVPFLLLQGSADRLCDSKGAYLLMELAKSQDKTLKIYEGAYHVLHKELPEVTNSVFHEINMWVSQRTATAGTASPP
Assay: In vitro competitive activity-based protein profiling (gel-based, FP-Rh or HT-01 probe)
Assay type: biochemical
Experimental: Compounds are tested to assess their MAGL and serine hydrolase activity using the following in vitro and in vivo assays.
Proteomes (human prefrontal cortex or cell membrane fractions) (50 μL, 1.0 mg/mL total protein concentration) were preincubated with varying concentrations of inhibitors at 37° C. After 30 min, FP—Rh or HT-01 (1.0 μL, 50 μM in DMSO) was added and the mixture was incubated for another 30 min at room temperature. Reactions were quenched with SDS loading buffer (15 μL-4×) and run on SDS-PAGE.

[1] = PC3 proteome, read-out: IC50 MGLL PC3 (Human)
[2] = PFC (prefrontal cortex) proteome
[3] = PFC (prefrontal cortex) proteome, read-out: IC50 MGLL PFC (Human)

O=C(O)C1CN(c2cc(CN3CC4(CCN(C(=O)OC(C(F)(F)F)C(F)(F)F)CC4)C3)cc(C(F)(F)F)c2)CCO1 (centres unmarked) [Example 100, 4-(3-((7-(((1,1,1,3,3,3-Hexafluoropropan-2-yl)oxy)carbonyl)-2,7-diazaspiro[3.5]nonan-2-yl)methyl)-5-(trifluoromethyl)phenyl)morpholine-2-carboxylic acid]
IC50 [1]: < 100 nM

O=C(O)C1COCCN1c1cc(CN2CC3(CCN(C(=O)OC(C(F)(F)F)C(F)(F)F)CC3)C2)cc(C(F)(F)F)c1 (centres unmarked) [Example 103, 4-(3-((7-(((1,1,1,3,3,3-Hexafluoropropan-2-yl)oxy)carbonyl)-2,7-diazaspiro[3.5]nonan-2-yl)methyl)-5-(trifluoromethyl)phenyl)morpholine-3-carboxylic acid]
IC50 [1]: < 100 nM

CC1(C(=O)O)CCN(c2cc(C(F)(F)F)ccc2CN2CC3(CCN(C(=O)OC(C(F)(F)F)C(F)(F)F)CC3)C2)C1 (centres unmarked) [Example 115, 1-(2-((7-(((1,1,1,3,3,3-Hexafluoropropan-2-yl)oxy)carbonyl)-2,7-diazaspiro[3.5]nonan-2-yl)methyl)-5-(trifluoromethyl)phenyl)-3-methylpyrrolidine-3-carboxylic acid]
IC50 [1]: < 100 nM

CC1(C(=O)O)CCN(c2cc(CN3CC4(CCN(C(=O)OC(C(F)(F)F)C(F)(F)F)CC4)C3)cc(C(F)(F)F)c2)C1 (centres unmarked) [Example 121, 1-(3-((7-(((1,1,1,3,3,3-Hexafluoropropan-2-yl)oxy)carbonyl)-2,7-diazaspiro[3.5]nonan-2-yl)methyl)-5-(trifluoromethyl)phenyl)-3-methylpyrrolidine-3-carboxylic acid]
IC50 [1]: < 100 nM

O=C(OC(C(F)(F)F)C(F)(F)F)N1CCC2(CC1)CCN(C(=O)c1ccc(C(F)(F)F)c(Cl)c1)C2 [Example 109, 1,1,1,3,3,3-Hexafluoropropan-2-yl 2-(3-chloro-4-(trifluoromethyl)benzoyl)-2,8-diazaspiro[4.5]decane-8-carboxylate]
IC50 [1]: < 100 nM

CN(Cc1ccc(C(F)(F)F)cc1OCC(=O)O)C1(C)CCN(C(=O)OC(C(F)(F)F)C(F)(F)F)CC1 [Example 136, 2-(2-(((1-(((1,1,1,3,3,3-Hexafluoropropan-2-yl)oxy)carbonyl)-4-methylpiperidin-4-yl)(methyl)amino)methyl)-5-(trifluoromethyl)phenoxy)acetic acid]
IC50 [1]: < 100 nM | % Inh MGLL PFC (Human, μM) [2]: ### (### is ≥ 75%)

O=C(O)C1CCN(c2cc(S(F)(F)(F)(F)F)ccc2CN2CCC3(CC2)CCN(C(=O)OC(C(F)(F)F)C(F)(F)F)C3)CC1 [Example 222, 1-(2-((2-(((1,1,1,3,3,3-Hexafluoropropan-2-yl)oxy)carbonyl)-2,8-diazaspiro[4.5]decan-8-yl)methyl)-5-(pentafluoro-l6-sulfaneyl)phenyl) piperidine-4-carboxylic acid]
IC50 [1]: 100 to 1000 nM

O=C(O)C1CCN(c2cc(CN3CCC4(CC3)CCN(C(=O)OC(C(F)(F)F)C(F)(F)F)C4)ccc2C(F)(F)F)CC1 [Example 221]
IC50 [1]: < 100 nM

O=C(O)C1CCN(c2cc(Cl)ccc2CN2CC3(CCN(C(=O)OC(C(F)(F)F)C(F)(F)F)CC3)C2)CC1 [Example 122, 1-(5-Chloro-2-((7-(((1,1,1,3,3,3-hexafluoropropan-2-yl)oxy)carbonyl)-2,7-diazaspiro[3.5]nonan-2-yl)methyl)phenyl) piperidine-4-carboxylic acid]
IC50 [1]: < 100 nM

O=C(O)C1CCN(c2cc(F)ccc2CN2CC3(CCN(C(=O)OC(C(F)(F)F)C(F)(F)F)CC3)C2)CC1 [Example 123, 1-(5-Fluoro-2-((7-(((1,1,1,3,3,3-hexafluoropropan-2-yl)oxy)carbonyl)-2,7-diazaspiro[3.5]nonan-2-yl)methyl)phenyl) piperidine-4-carboxylic acid]
IC50 [1]: 100 to 1000 nM

CN(Cc1ccc(C(F)(F)F)cc1N1CCN(CC(=O)O)CC1)C1(C)CCN(C(=O)OC(C(F)(F)F)C(F)(F)F)CC1 [Example 26, 2-(4-(2-(((1-(((1,1,1,3,3,3-Hexafluoropropan-2-yl)oxy)carbonyl)-4-methylpiperidin-4-yl)(methyl)amino)methyl)-5-(trifluoromethyl)phenyl)piperazin-1-yl)acetic acid]
IC50 [1]: < 100 nM | % Inh MGLL PFC (Human, μM) [2]: ### (### is ≥ 75%) | IC50 [3]: < 100 nM

O=C(O)c1cc(CN2CC3(CCN(C(=O)OC(C(F)(F)F)C(F)(F)F)CC3)C2)ccc1C(F)(F)F [Example 21, 5-((7-(((1,1,1,3,3,3-Hexafluoropropan-2-yl)oxy)carbonyl)-2,7-diazaspiro[3.5]nonan-2-yl)methyl)-2-(trifluoromethyl)benzoic acid]
IC50 [1]: < 100 nM

CN(Cc1ccc(Cl)cc1N1CCC(C(=O)O)CC1)C1(C)CCN(C(=O)OC(C(F)(F)F)C(F)(F)F)CC1 [Example 135, 1-(5-Chloro-2-(((1-(((1,1,1,3,3,3-hexafluoropropan-2-yl)oxy)carbonyl)-4-methylpiperidin-4-yl)(methyl)amino)methyl)phenyl) piperidine-4-carboxylic acid]
% Inh MGLL PFC (Human, μM) [2]: ### (### is ≥ 75%)

CN(Cc1ccc(C(F)(F)F)cc1N1CC2CC1CN2CC(=O)O)C1(C)CCN(C(=O)OC(C(F)(F)F)C(F)(F)F)CC1 (centres unmarked) [Example 27, 2-(5-(2-(((1-(((1,1,1,3,3,3-Hexafluoropropan-2-yl)oxy)carbonyl)-4-methylpiperidin-4-yl)(methyl)amino)methyl)-5-(trifluoromethyl)phenyl)-2,5-diazabicyclo[2.2.1]heptan-2-yl)acetic acid]
IC50 [1]: < 100 nM | IC50 [3]: < 100 nM

O=C(O)C1CCN(c2cc(C(F)(F)F)ccc2CN2CC3(CCN(C(=O)OC(C(F)(F)F)C(F)(F)F)CC3)C2)CC1 [Example 102, 1-(2-((7-(((1,1,1,3,3,3-Hexafluoropropan-2-yl)oxy)carbonyl)-2,7-diazaspiro[3.5]nonan-2-yl)methyl)-5-(trifluoromethyl)phenyl)piperidine-4-carboxylic acid]
IC50 [1]: < 100 nM

O=C(O)[C@@H]1CCCN(c2cc(C(F)(F)F)ccc2CN2CC3(CCN(C(=O)OC(C(F)(F)F)C(F)(F)F)CC3)C2)C1 [Example 107, (R)-1-(2-((7-(((1,1,1,3,3,3-Hexafluoropropan-2-yl)oxy)carbonyl)-2,7-diazaspiro[3.5]nonan-2-yl)methyl)-5-(trifluoromethyl)phenyl)piperidine-3-carboxylic acid]
IC50 [1]: < 100 nM

CC(C)(C#Cc1cc(CN2CCCC23CCN(C(=O)OC(C(F)(F)F)C(F)(F)F)CC3)cc(C(F)(F)F)c1)C(=O)O [Example 140, 4-{3-[(8-{[(1,1,1,3,3,3-Hexafluoropropan-2-yl)oxy]carbonyl}-1,8-dazaspiro[4.5]decan-1-yl)methyl]-5-(trifluoromethyl)phenyl]-2,2-dimethylbut-3-ynoic acid]
IC50 [1]: < 100 nM

O=C(O)[C@H]1CCCN(c2cc(C(F)(F)F)ccc2CN2CC3(CCN(C(=O)OC(C(F)(F)F)C(F)(F)F)CC3)C2)C1 [Example 111, (S)-1-(2-((7-(((1,1,1,3,3,3-hexafluoropropan-2-yl)oxy)carbonyl)-2,7-diazaspiro[3.5]nonan-2-yl)methyl)-5-(trifluoromethyl)phenyl)piperidine-3-carboxylic acid]
IC50 [1]: < 100 nM

CC1(C(=O)O)CN(c2cc(CN3CC4(CCN(C(=O)OC(C(F)(F)F)C(F)(F)F)CC4)C3)cc(C(F)(F)F)c2)CCO1 (centres unmarked) [Example 22, 4-(3-((7-(((1,1,1,3,3,3-Hexafluoropropan-2-yl)oxy)carbonyl)-2,7-diazaspiro[3.5]nonan-2-yl)methyl)-5-(trifluoromethyl)phenyl)-2-methylmorpholine-2-carboxylic acid]
IC50 [1]: < 100 nM

CC1(OCc2ccc(Cl)cc2C2(C(=O)O)CCCC2)CCN(C(=O)OC(C(F)(F)F)C(F)(F)F)CC1 [Example 146, 1-(5-Chloro-2-{[(1-{[(1,1,1,3,3,3-hexafluoropropan-2-yl)oxy]carbonyl}-4-methylpiperidin-4-yl)oxy]methyl}phenyl) cyclopentane-1-carboxylic acid]
IC50 [1]: < 100 nM | % Inh MGLL PFC (Human, μM) [2]: ### (### is ≥ 75%)

N#Cc1ccc(C(=O)N2CCC3(CCN(C(=O)OC(C(F)(F)F)C(F)(F)F)CC3)C2)cc1C(F)(F)F [Example 12, 1,1,1,3,3,3-Hexafluoropropan-2-yl 2-(4-cyano-3-(trifluoromethyl)benzoyl)-2,8-diazaspiro[4.5]decane-8-carboxylate]
IC50 [1]: < 100 nM

O=C(O)C1CCN(c2cc(C(F)(F)F)ccc2CN2CC3(CCN(C(=O)OC(C(F)(F)F)C(F)(F)F)CC3)C2)C1 (centres unmarked) [Example 101, 1-(2-((7-(((1,1,1,3,3,3-Hexafluoropropan-2-yl)oxy)carbonyl)-2,7-diazaspiro[3.5]nonan-2-yl)methyl)-5-(trifluoromethyl)phenyl)pyrrolidine-3-carboxylic acid]
IC50 [1]: < 100 nM

O=C(OC(C(F)(F)F)C(F)(F)F)N1CCC2(CC1)CCN(C(=O)c1ccc(C(F)(F)F)cc1Cl)C2 [Example 119, 1,1,1,3,3,3-Hexafluoropropan-2-yl 2-(2-chloro-4-(trifluoromethyl)benzoyl)-2,8-diazaspiro[4.5]decane-8-carboxylate]
IC50 [1]: < 100 nM

CN(Cc1ccc(C(F)(F)F)cc1-c1nnn[nH]1)C1(C)CCN(C(=O)OC(C(F)(F)F)C(F)(F)F)CC1 [Example 24, 1,1,1,3,3,3-Hexafluoropropan-2-yl 4-((2-(1H-tetrazol-5-yl)-4-(trifluoromethyl)benzyl)(methyl)amino)-4-methylpiperidine-1-carboxylate]
IC50 [1]: < 100 nM
